We go through 1 compound from publication PMC11684029, “Discovery of VU6024578/BI02982816: An mGlu1 Positive Allosteric Modulator with Efficacy in Preclinical Antipsychotic and Cognition Models” (Journal of Medicinal Chemistry, 2024).

Series [1] has as its target T1, human P-gp (Homo sapiens, UniProt P08183).
T1 construct: expressed in transfected cells; host or cells: MDCK-MDR1
In words: MDCK-MDR1 permeability/efflux. Type of series: in vitro ADME.

The target of series [2] is T2, P-gp (MDR1) (Homo sapiens, UniProt P08183).
T2 construct: expressed in transfected cells; host or cells: MDCK-MDR1
T2 sequence (P08183 whole entry): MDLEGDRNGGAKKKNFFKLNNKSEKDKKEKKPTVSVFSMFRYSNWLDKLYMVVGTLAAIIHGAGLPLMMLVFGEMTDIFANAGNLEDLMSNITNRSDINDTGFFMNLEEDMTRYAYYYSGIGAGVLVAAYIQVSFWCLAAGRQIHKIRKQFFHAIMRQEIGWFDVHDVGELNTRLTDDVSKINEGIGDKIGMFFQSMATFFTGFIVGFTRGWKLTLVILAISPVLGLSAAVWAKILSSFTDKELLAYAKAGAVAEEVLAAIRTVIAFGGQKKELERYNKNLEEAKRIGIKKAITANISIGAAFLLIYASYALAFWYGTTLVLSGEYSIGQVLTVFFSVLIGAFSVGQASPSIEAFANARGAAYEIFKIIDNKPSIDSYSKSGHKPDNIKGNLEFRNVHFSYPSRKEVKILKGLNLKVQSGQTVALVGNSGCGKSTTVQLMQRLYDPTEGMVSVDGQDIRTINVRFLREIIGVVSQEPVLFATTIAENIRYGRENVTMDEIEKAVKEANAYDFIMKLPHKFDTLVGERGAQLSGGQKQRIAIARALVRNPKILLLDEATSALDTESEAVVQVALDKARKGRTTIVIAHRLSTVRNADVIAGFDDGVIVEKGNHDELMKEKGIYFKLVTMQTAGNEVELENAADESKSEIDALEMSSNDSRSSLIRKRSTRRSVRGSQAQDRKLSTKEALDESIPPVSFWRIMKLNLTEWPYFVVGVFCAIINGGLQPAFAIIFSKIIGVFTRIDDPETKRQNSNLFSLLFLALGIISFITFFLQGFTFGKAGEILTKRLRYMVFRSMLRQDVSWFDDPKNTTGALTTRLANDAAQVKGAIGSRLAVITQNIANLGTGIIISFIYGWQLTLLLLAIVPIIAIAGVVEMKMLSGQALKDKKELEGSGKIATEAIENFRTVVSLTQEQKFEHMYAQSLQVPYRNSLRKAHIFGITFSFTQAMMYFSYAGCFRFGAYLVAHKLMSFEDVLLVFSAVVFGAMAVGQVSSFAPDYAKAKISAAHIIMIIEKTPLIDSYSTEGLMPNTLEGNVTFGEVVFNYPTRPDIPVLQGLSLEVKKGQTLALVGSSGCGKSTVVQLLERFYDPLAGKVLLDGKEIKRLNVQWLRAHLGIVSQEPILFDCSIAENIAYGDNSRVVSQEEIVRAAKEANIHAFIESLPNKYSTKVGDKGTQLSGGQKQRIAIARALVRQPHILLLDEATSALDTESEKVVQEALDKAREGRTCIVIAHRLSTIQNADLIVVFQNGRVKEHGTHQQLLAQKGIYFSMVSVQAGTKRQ
In words: MDCK-MDR1 permeability/efflux. The note with it: human. Type of series: in vitro ADME.

Series [3] can be described thus: satellite PK for rat AHL. It is filed as in vivo. The note with it: 2.5-h end of study; for concentration at 2.5 h: brain, oral, read-out: free brain concentration. On the procedure:
Here, administration of 0.75 mg/kg IP of amphetamine induced a robust hyperlocomotive state in rats (>1200 beam breaks), which was dose-dependently reversed by oral administration of 19d. […] Considering the longer time point for exposure and the results, mGlu1 has sufficient target coverage and PK/PD is established for this paradigm.[24]

Series [4] has as its system C57BL/6JRj mice. In words: N1 sensory gating, MK-801 induced deficit. Type of series: in vivo. The following applies: mouse, 10 mg/kg s.c. An excerpt: We have also employed here event-related potentials (ERPs) and auditory-evoked oscillations, which serve as critical translational biomarkers, to assess the impact of our investigational drug on sensory processing and cognitive functions, providing valuable data on its potential efficacy in treating disorders like schizophrenia. Detailed description of the methodology, setup specifications and recording procedure and analysis of the 40 Hz auditory steady-state response (ASSR) protocol can be found in Schuelert et al.[27] […] Reduced entrainment of gamma oscillation reflects abnormalities in basic sensory registration and processing but is also associated with impaired higher cognitive functions.[32] ASSR can also be reliably impaired preclinically by different NMDA receptor antagonists.[33],[34] […] Abnormalities associated with the filtering or “gating” of sensory information are among the most consistent findings in schizophrenia research.[35] […]
Mice were placed in a plexiglass cage in an attenuated sound box and allowed to adapt to their environment for 20 min before subcutaneous administration of VU6024578 0.8, 4, and 10 mg/kg or vehicle (20% HP-β-CD in water). […] An infrared sensor on the Neurologger recorded the infrared trigger signals and trigger signals were saved in an individual trigger channel. […]

Series [5] deals with rat mGlu1 (Rattus norvegicus, UniProt P23385). Briefly: mGlu1 calcium mobilization PAM assay. Type of series: cell-based. Background: A change in cytosolic calcium serves as a functional read-out for many receptors and channels.
Chain of rat mGlu1 (P23385 19-1199): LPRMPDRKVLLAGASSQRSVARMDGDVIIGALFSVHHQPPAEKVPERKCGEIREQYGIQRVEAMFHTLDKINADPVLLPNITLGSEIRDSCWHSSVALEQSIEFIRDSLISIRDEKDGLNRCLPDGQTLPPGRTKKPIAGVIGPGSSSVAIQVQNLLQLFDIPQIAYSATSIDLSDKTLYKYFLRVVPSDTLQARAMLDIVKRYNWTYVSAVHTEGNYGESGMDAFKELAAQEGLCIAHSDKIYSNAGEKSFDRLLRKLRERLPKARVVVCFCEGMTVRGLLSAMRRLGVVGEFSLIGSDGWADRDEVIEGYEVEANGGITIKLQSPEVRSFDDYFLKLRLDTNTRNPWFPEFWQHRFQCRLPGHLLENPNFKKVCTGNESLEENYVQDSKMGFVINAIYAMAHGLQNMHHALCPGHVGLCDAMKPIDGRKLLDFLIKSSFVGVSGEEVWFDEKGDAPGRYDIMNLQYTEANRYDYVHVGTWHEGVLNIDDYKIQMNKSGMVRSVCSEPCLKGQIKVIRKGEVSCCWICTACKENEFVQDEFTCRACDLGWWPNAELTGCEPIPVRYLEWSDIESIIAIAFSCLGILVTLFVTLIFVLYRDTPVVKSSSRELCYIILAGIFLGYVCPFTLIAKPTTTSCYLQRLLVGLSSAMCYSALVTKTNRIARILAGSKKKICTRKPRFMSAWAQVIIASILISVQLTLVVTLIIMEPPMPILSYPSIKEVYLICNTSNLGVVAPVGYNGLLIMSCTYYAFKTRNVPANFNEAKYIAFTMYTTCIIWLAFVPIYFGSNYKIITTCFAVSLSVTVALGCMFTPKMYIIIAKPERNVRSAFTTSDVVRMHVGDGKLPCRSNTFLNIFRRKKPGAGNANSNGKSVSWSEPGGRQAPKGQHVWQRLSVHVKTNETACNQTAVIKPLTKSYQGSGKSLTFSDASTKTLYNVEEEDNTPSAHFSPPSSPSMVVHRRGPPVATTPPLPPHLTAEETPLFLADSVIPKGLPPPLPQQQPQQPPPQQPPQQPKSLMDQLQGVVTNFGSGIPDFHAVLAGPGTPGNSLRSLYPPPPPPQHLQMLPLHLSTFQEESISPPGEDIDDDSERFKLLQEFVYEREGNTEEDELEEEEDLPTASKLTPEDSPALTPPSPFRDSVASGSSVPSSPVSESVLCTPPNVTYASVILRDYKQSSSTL
The test system of series [6] is Wistar rats. Briefly: qEEG telemetry recordings. The following applies: rat. It is filed as in vivo. On the procedure: These effects were most pronounced between 30 and 120 min post treatment (Figure 11C).
Data are expressed as mean ± SEM and were analyzed by one- and two-way ANOVA followed by Dunnett’s Multiple Comparisons tests (*p < 0.05, **p < 0.01, ***p < 0.001 versus vehicle).
Wistar rats using a telemetry system (Data Sciences International DSI, USA).[20] Telemetric transmitters (F40-EET, Data Sciences International DSI, USA) were implanted intraperitoneally into male Wistar rats. EEG electrodes were placed supradurally above the hippocampus and two more electrodes were implanted into the neck muscle in order to measure the electromyography (EMG) signal required for differentiation between different vigilance states. Telemetric EEG recordings were performed during the light phase in the rats’ home cage environment. EEG activity was sampled at 500 Hz with a hardware filter cutoff of 50 Hz. Data were recorded continuously for 24 h, but only 1 h before compound treatment (baseline), the first 4 h after compound treatment plus an additional hour (+24 h time point) have been analyzed. Effects of treatment with 19d (1, 10 mg/kg, p.o., n = 14, applied 2 h after starting the recording) were determined on motor activity, body temperature, vigilance states and EEG power spectra using the EEG analysis software NeuroScore (Data Sciences International DSI, USA). The rats were tested in a crossover study design with a two-day washout period between two treatments.[20]

Where two headings read alike, the source gives them in different places.

T1 sequence (P08183 whole entry): as the sequence (P08183 whole entry) above

For orientation: Papp means a coefficient for how fast a substance crosses the barrier. The EC50 is the concentration that produces a half-maximal response. Consider `Cn1nc(-c2ccnn2C)cc1CNC(=O)c1cc(-c2ccco2)ccc1Cl` [Compound 19d, 2-Chloro-N-((1,2′-dimethyl-1H,2’H-[3,3′-bipyrazol]-5-yl)methyl)-5-(furan-2-yl)benzamide], for which the “human P-gp substrate, in words” value in series [1] is “not a human P-gp substrate”. Besides, the Papp in series [2] was determined as 73 ×10⁻⁶ cm/s. Moreover, in series [3] (3 mg/kg), the “free brain concentration over in vitro EC50” value is on record as about 0.6 fold and the concentration at 2.5 h amounted to 32 nM. Further, in series [3] (10 mg/kg), the “free brain concentration over in vitro EC50” value is on record as about 1.2 fold and the concentration at 2.5 h worked out at 67 nM. In series [4], the “N1 sensory gating deficit induced by MK-801” value was “reversed”. For the same compound, in series [5] (PAM, calcium flux), the EC50 came to 46 nM and the “rat mGlu1 Glumax” value is 124%. For the same compound, the “rat mGlu1 pEC50” value in series [5] (n = 110) turned out to be 7.39 ± 0.02. The body temperature entry in series [6] (10 mg/kg p.o.) is recorded as “no measurable changes”. Besides, in series [6] (10 mg/kg p.o., 60 to 240 min post treatment), the EEG power spectra entry is “consistent reduction of delta, alpha and beta power”. Moreover, the motor activity result in series [6] (10 mg/kg p.o., maximum within first 120 min) was “significantly increased”. In addition, in series [6] (higher dose (10 mg/kg p.o.)), the “time spent in NREM and REM sleep” value is reported as “reduction”; the “time spent in active and quiet wake states” value is recorded as “significant increase”.
